# Source: ChEMBL document CHEMBL1671830, “Discovery of PSI-353661, a Novel Purine Nucleotide Prodrug for the Treatment of HCV Infection” (ACS Med Chem Lett, 2011)
# Experiments:
# [1] = test system: Hepatitis C virus; experiment: Antiviral activity against HCV infected in human HuH7 cells by cell-based replicon assay; assay type: functional, Hepacivirus hominis, Huh-7
# [2] = Cytotoxicity against human […] cells after 96 hrs by MTS assay; assay type: cell-based
# [3] = Cytotoxicity against human HuH7 cells after 96 hrs by MTS assay; assay type: cell-based, Huh-7
# [4] = Cytotoxicity against human HepG2 cells after 96 hrs by MTS assay; assay type: cell-based
# [5] = Cytotoxicity against human CEM cells after 96 hrs by MTS assay; assay type: cell-based; conditions: CEM (CCRF-CEM) cells
# [6] = test system: Hepatitis C virus; experiment: Antiviral activity against HCV harboring NS5B polymerase S282T mutant infected in human HuH7 cells by cell-based replicon assay; assay type: functional, Hepacivirus hominis, Huh-7
# [7] = Half life in simulated intestinal fluid; assay type: ADME
# [8] = Half life in simulated gastrointestinal fluid; assay type: ADME
# [9] = Half life in human liver S9 fraction; assay type: ADME, subcellular
# [10] = test system: HepG2; experiment: Cytotoxicity against human HepG2 cells assessed as mitochondrial rDNA level up to 100 uM after 14 days by RT-PCR analysis; assay type: cell-based; conditions: hepg2, 336 h
# [11] = Half life in human plasma; assay type: ADME, cell-free
# [12] = test system: Huh-7; experiment: Increase of cellular triphosphate level in human HuH7 cells at 100 uM after 48 hrs by HPLC analysis; assay type: functional
# [13] = test system: Hepatocyte; experiment: Increase of cellular triphosphate level in human primary hepatocytes cells at 100 uM after 24 hrs by HPLC analysis; assay type: functional
# [14] = test system: HepG2; experiment: Cytotoxicity against human HepG2 cells assessed as mitochondrial COX2 DNA level up to 100 uM after 14 days by RT-PCR analysis; assay type: cell-based; conditions: hepg2, 336 h
# [15] = test system: CCRF-CEM; experiment: Cytotoxicity against human CEM cells assessed as mitochondrial rDNA level up to 100 uM after 14 days by RT-PCR analysis; assay type: cell-based; conditions: 336 h
# [16] = test system: CCRF-CEM; experiment: Cytotoxicity against human CEM cells assessed as mitochondrial COX2 DNA level up to 100 uM after 14 days by RT-PCR analysis; assay type: cell-based; conditions: 336 h
SMILES,"EC90 ([1]; Hepatitis C virus, Huh-7)",CC50 at 96 h [2],CC50 at 96 h [3],CC50 at 96 h [4],CC50 at 96 h [5],other results
CCOC(=O)[C@H](C)NP(=O)(OC[C@H]1O[C@@H](n2cnc3c(O)nc(N)nc32)[C@](C)(F)[C@@H]1O)Oc1ccccc1 (some centres undefined),2.38 µM,> 100 µM,> 100 µM,> 100 µM,> 100 µM,–
CCOC(=O)[C@H](C)NP(=O)(OC[C@H]1O[C@@H](n2cnc3c(OC)nc(N)nc32)[C@](C)(F)[C@@H]1O)Oc1ccccc1 (some centres undefined),0.0074 µM,65 µM,> 100 µM,62 µM,55 µM,"EC90 ([6]; Hepatitis C virus, Huh-7): 0.011 µM"
CCOC(=O)[C@H](C)NP(=O)(OC[C@H]1O[C@@H](n2cnc3c(OCC)nc(N)nc32)[C@](C)(F)[C@@H]1O)Oc1ccccc1 (some centres undefined),0.01 µM,68 µM,47 µM,61 µM,37 µM,–
CCCOc1nc(N)nc2c1ncn2[C@@H]1O[C@H](COP(=O)(N[C@@H](C)C(=O)OCC)Oc2ccccc2)[C@@H](O)[C@@]1(C)F (some centres undefined),0.013 µM,–,–,–,–,–
CCOC(=O)[C@H](C)NP(=O)(OC[C@H]1O[C@@H](n2cnc3c(OCCOC)nc(N)nc32)[C@](C)(F)[C@@H]1O)Oc1ccccc1 (some centres undefined),0.02 µM,–,–,–,–,–
CCOC(=O)[C@H](C)NP(=O)(OC[C@H]1O[C@@H](n2cnc3c(OCCF)nc(N)nc32)[C@](C)(F)[C@@H]1O)Oc1ccccc1 (some centres undefined),0.027 µM,–,–,–,–,–
CCOC(=O)[C@H](C)NP(=O)(OC[C@H]1O[C@@H](n2cnc3c(SCC)nc(N)nc32)[C@](C)(F)[C@@H]1O)Oc1ccccc1 (some centres undefined),0.047 µM,–,–,–,–,–
CCOC(=O)[C@H](C)NP(=O)(OC[C@H]1O[C@@H](n2cnc3c(N4CCC4)nc(N)nc32)[C@](C)(F)[C@@H]1O)Oc1ccccc1 (some centres undefined),0.007 µM,84 µM,84 µM,75 µM,39 µM,–
CCOC(=O)[C@H](C)NP(=O)(OC[C@H]1O[C@@H](n2cnc3c(NC4CC4)nc(N)nc32)[C@](C)(F)[C@@H]1O)Oc1ccccc1 (some centres undefined),0.0098 µM,> 100 µM,> 100 µM,> 100 µM,45 µM,–
CCOC(=O)[C@H](C)NP(=O)(OC[C@H]1O[C@@H](n2cnc3c(NC4CCC4)nc(N)nc32)[C@](C)(F)[C@@H]1O)Oc1ccccc1 (some centres undefined),0.024 µM,–,–,–,–,–
CCOC(=O)[C@H](C)NP(=O)(OC[C@H]1O[C@@H](n2cnc3c(NC4CCCC4)nc(N)nc32)[C@](C)(F)[C@@H]1O)Oc1ccccc1 (some centres undefined),0.026 µM,–,–,–,–,–
CC(C)OC(=O)[C@H](C)NP(=O)(OC[C@H]1O[C@@H](n2cnc3c(O)nc(N)nc32)[C@](C)(F)[C@@H]1O)Oc1ccccc1 (some centres undefined),0.75 µM,> 100 µM,> 100 µM,> 100 µM,> 100 µM,"EC90 ([6]; Hepatitis C virus, Huh-7): 0.61 µM"
C[C@H](NP(=O)(OC[C@H]1O[C@@H](n2cnc3c(O)nc(N)nc32)[C@](C)(F)[C@@H]1O)Oc1ccccc1)C(=O)OC1CCCC1 (some centres undefined),0.18 µM,> 100 µM,> 100 µM,> 100 µM,> 100 µM,"half-life [7]: > 20 h; half-life [8]: 15 h; half-life [9]: 0.2 h; EC90 ([6]; Hepatitis C virus, Huh-7): 0.12 µM; Activity [10]: Non-toxic; half-life [11]: > 24 h; Activity [12]: 0.06 mM; Activity [13]: 0.04 mM; Activity [14]: Non-toxic; Activity [15]: Non-toxic; Activity [16]: Non-toxic"
C[C@H](NP(=O)(OC[C@H]1O[C@@H](n2cnc3c(O)nc(N)nc32)[C@](C)(F)[C@@H]1O)Oc1ccccc1)C(=O)OC1CCCCC1 (some centres undefined),0.446 µM,> 100 µM,> 100 µM,> 100 µM,> 100 µM,–
COC(=O)[C@H](C)NP(=O)(OC[C@H]1O[C@@H](n2cnc3c(OC)nc(N)nc32)[C@](C)(F)[C@@H]1O)Oc1ccccc1 (some centres undefined),0.0081 µM,> 100 µM,> 100 µM,71 µM,20 µM,–
CCOc1nc(N)nc2c1ncn2[C@@H]1O[C@H](COP(=O)(N[C@@H](C)C(=O)OC)Oc2ccccc2)[C@@H](O)[C@@]1(C)F (some centres undefined),0.016 µM,> 100 µM,> 100 µM,> 100 µM,74 µM,"EC90 ([6]; Hepatitis C virus, Huh-7): 0.016 µM"
CCOc1nc(N)nc2c1ncn2[C@@H]1O[C@H](COP(=O)(N[C@@H](C)C(=O)OC(C)C)Oc2ccccc2)[C@@H](O)[C@@]1(C)F (some centres undefined),0.02 µM,> 100 µM,59 µM,> 100 µM,93 µM,–
CCCOc1nc(N)nc2c1ncn2[C@@H]1O[C@H](COP(=O)(N[C@@H](C)C(=O)OC)Oc2ccccc2)[C@@H](O)[C@@]1(C)F (some centres undefined),0.0146 µM,39 µM,39 µM,45 µM,17 µM,–
CCCOc1nc(N)nc2c1ncn2[C@@H]1O[C@H](COP(=O)(N[C@@H](C)C(=O)OC(C)C)Oc2ccccc2)[C@@H](O)[C@@]1(C)F (some centres undefined),0.033 µM,> 100 µM,49 µM,> 100 µM,44 µM,–
COC(=O)[C@H](C)NP(=O)(OC[C@H]1O[C@@H](n2cnc3c(N4CCC4)nc(N)nc32)[C@](C)(F)[C@@H]1O)Oc1ccccc1 (some centres undefined),0.09 µM,> 100 µM,> 100 µM,> 100 µM,75 µM,"half-life [7]: > 20 h; half-life [8]: > 20 h; half-life [9]: 0.4 h; EC90 ([6]; Hepatitis C virus, Huh-7): 0.04 µM; Activity [10]: Non-toxic; half-life [11]: 11.6 h; Activity [12]: 0.16 mM; Activity [13]: 0.05 mM; Activity [14]: Non-toxic; Activity [15]: Non-toxic; Activity [16]: Non-toxic"
CC(C)OC(=O)[C@H](C)NP(=O)(OC[C@H]1O[C@@H](n2cnc3c(N4CCC4)nc(N)nc32)[C@](C)(F)[C@@H]1O)Oc1ccccc1 (some centres undefined),0.019 µM,74 µM,53 µM,100 µM,74 µM,–
COC(=O)[C@H](C)NP(=O)(OC[C@H]1O[C@@H](n2cnc3c(NC4CC4)nc(N)nc32)[C@](C)(F)[C@@H]1O)Oc1ccccc1 (some centres undefined),0.0082 µM,> 100 µM,> 100 µM,> 100 µM,34 µM,–
CC(C)OC(=O)[C@H](C)NP(=O)(OC[C@H]1O[C@@H](n2cnc3c(NC4CC4)nc(N)nc32)[C@](C)(F)[C@@H]1O)Oc1ccccc1 (some centres undefined),0.0088 µM,98 µM,96 µM,> 100 µM,> 100 µM,–
COc1nc(N)nc2c1ncn2[C@@H]1O[C@H](CO[P@](=O)(N[C@@H](C)C(=O)OC(C)C)Oc2ccccc2)[C@@H](O)[C@@]1(C)F,0.027 µM,–,–,–,–,"EC90 ([6]; Hepatitis C virus, Huh-7): 0.038 µM; Activity [12]: 0.07 mM; Activity [13]: 0.14 mM"
COc1nc(N)nc2c1ncn2[C@@H]1O[C@H](COP(=O)(N[C@@H](C)C(=O)OC(C)C)Oc2ccccc2)[C@@H](O)[C@@]1(C)F (stereo in doubt; 23b),–,–,–,–,–,EC90 [6]: 0.011 µM; Activity [12]: 0.17 mM; EC90 [1]: 0.008 µM; Activity [13]: 0.44 mM
